Test results as given in the supplement of paper PMC10307832.

Tests used:
Assay in all cases: relative viability (nuclei count vs DMSO), 5 days (fraction); higher = more cells survive
[1] = compound: Cn1cc(-c2cnn3c(N)c(Br)c([C@@H]4CCCNC4)nc23)cn1 + N=C(N)NC(=N)NCCc1ccccc1 [Phenformin] (partner 250 µM)
How it was run: (§1)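 A single step with final 0.05% Triton X-100, 1% formaldehyde and 1 ug/ml Hoechst fixed the cells and stained nuclei 5 days after treatment. Lung cancer cell lines in 1536-well plates had been treated by pin tool the day after seeding with one drug alone or a fixed anchor-drug dose plus five library-drug doses (not always all listed) in √10 steps, and nuclei were counted on 4× images. Relative viability is the ratio of nuclei in treated wells to nuclei in vehicle wells, taken as the median of duplicate plates.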

[2] = compound: Cn1cc(-c2cnn3c(N)c(Br)c([C@@H]4CCCNC4)nc23)cn1 + Nc1nc2[nH]cc(CCc3ccc(C(=O)N[C@@H](CCC(=O)O)C(=O)O)cc3)c2c(=O)[nH]1 [Pemetrexed] (partner 0.2 µM)
How it was run: as §1

[3] = compound: Cn1cc(-c2cnn3c(N)c(Br)c([C@@H]4CCCNC4)nc23)cn1 + Cc1nc(Nc2ncc(C(=O)Nc3c(C)cccc3Cl)s2)cc(N2CCN(CCO)CC2)n1 [Dasatinib] (partner 0.075 µM)
How it was run: as §1

[4] = compound: Cn1cc(-c2cnn3c(N)c(Br)c([C@@H]4CCCNC4)nc23)cn1 + Cc1cc(Nc2cc(N3CCN(C)CC3)nc(Sc3ccc(NC(=O)C4CC4)cc3)n2)n[nH]1 [Tozasertib] (partner 0.1 µM)
How it was run: as §1

[5] = compound: Cn1cc(-c2cnn3c(N)c(Br)c([C@@H]4CCCNC4)nc23)cn1 + O=C(CCCCCCC(=O)Nc1ccccc1)NO [Vorinostat] (partner 1 µM)
How it was run: as §1

[6] = compound: Cn1cc(-c2cnn3c(N)c(Br)c([C@@H]4CCCNC4)nc23)cn1 + O=C(c1cc(Cc2n[nH]c(=O)c3ccccc23)ccc1F)N1CCN(C(=O)C2CC2)CC1 [Olaparib] (partner 8 µM)
How it was run: as §1

[7] = compound: Cn1cc(-c2cnn3c(N)c(Br)c([C@@H]4CCCNC4)nc23)cn1 + COc1cc2c(Oc3ccc(NC(=O)C4(C(=O)Nc5ccc(F)cc5)CC4)cc3F)ccnc2cc1OCCCN1CCOCC1 [Foretinib] (partner 0.25 µM)
How it was run: as §1

[8] = compound: Cn1cc(-c2cnn3c(N)c(Br)c([C@@H]4CCCNC4)nc23)cn1 + CC(=O)c1c(C)c2cnc(Nc3ccc(N4CCNCC4)cn3)nc2n(C2CCCC2)c1=O [Palbociclib] (partner 0.5 µM)
How it was run: as §1

[9] = compound: Cn1cc(-c2cnn3c(N)c(Br)c([C@@H]4CCCNC4)nc23)cn1 + COc1cccc2cc(-c3nc([C@H]4CC[C@H](C(=O)O)CC4)n4ncnc(N)c34)[nH]c12 [OSI-027] (partner 0.5 µM)
How it was run: as §1

[10] = compound: Cn1cc(-c2cnn3c(N)c(Br)c([C@@H]4CCCNC4)nc23)cn1 + CCNC(=O)c1noc(-c2cc(C(C)C)c(O)cc2O)c1-c1ccc(CN2CCOCC2)cc1 [Luminespib] (partner 0.01 µM)
How it was run: as §1

[11] = compound: Cn1cc(-c2cnn3c(N)c(Br)c([C@@H]4CCCNC4)nc23)cn1 + NC(=O)Nc1cc(-c2cccc(F)c2)sc1C(=O)N[C@H]1CCCNC1 [AZD7762] (partner 0.2 µM)
How it was run: as §1

[12] = compound: Cn1cc(-c2cnn3c(N)c(Br)c([C@@H]4CCCNC4)nc23)cn1 + CC(=O)Nc1cccc(-n2c(=O)n(C3CC3)c(=O)c3c(Nc4ccc(I)cc4F)n(C)c(=O)c(C)c32)c1 [Trametinib] (partner 0.02 µM)
How it was run: as §1

[13] = compound: Cn1cc(-c2cnn3c(N)c(Br)c([C@@H]4CCCNC4)nc23)cn1 + Nc1ncn([C@H]2C[C@H](O)[C@@H](CO)O2)c(=O)n1 [Decitabine] (partner 2 µM)
How it was run: as §1

[14] = compound: Cn1cc(-c2cnn3c(N)c(Br)c([C@@H]4CCCNC4)nc23)cn1
How it was run: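 In 1536-well plates, lung cancer cell lines rested overnight at 37 °C before five library-drug doses (not always all listed), √10 apart, were pinned onto vehicle-anchored plates. Nuclei were counted with MetaXpress from 4× Hoechst images taken after 5 days without medium change. Viability compares treated-well with vehicle-well nuclei as a median over plates, and plates needed control CV below 25% plus at least one doubling to pass.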

SW 900
relative viability ([1]; first compound 0.05 µM): 0.656
relative viability ([1]; first compound 0.1581 µM): 0.776
relative viability ([1]; first compound 0.5 µM): 0.726
relative viability ([1]; first compound 1.581 µM): 0.428
relative viability ([1]; first compound 5 µM): 0.228
relative viability ([2]; first compound 0.05 µM): 0.449
relative viability ([2]; first compound 0.1581 µM): 0.468
relative viability ([2]; first compound 0.5 µM): 0.493
relative viability ([2]; first compound 1.581 µM): 0.295
relative viability ([2]; first compound 5 µM): 0.305
relative viability ([3]; first compound 0.05 µM): 0.496
relative viability ([3]; first compound 0.1581 µM): 0.585
relative viability ([3]; first compound 0.5 µM): 0.671
relative viability ([3]; first compound 1.581 µM): 0.448
relative viability ([3]; first compound 5 µM): 0.197
relative viability ([4]; first compound 0.05 µM): 0.59
relative viability ([4]; first compound 0.1581 µM): 0.66
relative viability ([4]; first compound 0.5 µM): 0.421
relative viability ([4]; first compound 1.581 µM): 0.458
relative viability ([4]; first compound 5 µM): 0.351
relative viability ([5]; first compound 0.05 µM): 0.47
relative viability ([5]; first compound 0.1581 µM): 0.362
relative viability ([5]; first compound 0.5 µM): 0.648
relative viability ([5]; first compound 1.581 µM): 0.369
relative viability ([5]; first compound 5 µM): 0.181
relative viability ([6]; first compound 0.05 µM): 0.897
relative viability ([6]; first compound 0.1581 µM): 0.97
relative viability ([6]; first compound 0.5 µM): 0.758
relative viability ([6]; first compound 1.581 µM): 0.8
relative viability ([6]; first compound 5 µM): 0.616
relative viability ([7]; first compound 0.05 µM): 0.828
relative viability ([7]; first compound 0.1581 µM): 0.817
relative viability ([7]; first compound 0.5 µM): 0.78
relative viability ([7]; first compound 1.581 µM): 0.768
relative viability ([7]; first compound 5 µM): 0.39
relative viability ([8]; first compound 0.05 µM): 0.53
relative viability ([8]; first compound 0.1581 µM): 0.527
relative viability ([8]; first compound 0.5 µM): 0.535
relative viability ([8]; first compound 1.581 µM): 0.444
relative viability ([8]; first compound 5 µM): 0.529
relative viability ([9]; first compound 0.05 µM): 0.597
relative viability ([9]; first compound 0.1581 µM): 0.612
relative viability ([9]; first compound 0.5 µM): 0.541
relative viability ([9]; first compound 1.581 µM): 0.453
relative viability ([9]; first compound 5 µM): 0.26
relative viability ([10]; first compound 0.05 µM): 0.184
relative viability ([10]; first compound 0.1581 µM): 0.176
relative viability ([10]; first compound 0.5 µM): 0.188
relative viability ([10]; first compound 1.581 µM): 0.189
relative viability ([10]; first compound 5 µM): 0.165
relative viability ([11]; first compound 0.05 µM): 0.607
relative viability ([11]; first compound 0.1581 µM): 0.618
relative viability ([11]; first compound 0.5 µM): 0.572
relative viability ([11]; first compound 1.581 µM): 0.547
relative viability ([11]; first compound 5 µM): 0.465
relative viability ([12]; first compound 0.05 µM): 0.772
relative viability ([12]; first compound 0.1581 µM): 0.746
relative viability ([12]; first compound 0.5 µM): 0.946
relative viability ([12]; first compound 1.581 µM): 0.753
relative viability ([12]; first compound 5 µM): 0.816
relative viability ([13]; first compound 0.05 µM): 0.383
relative viability ([13]; first compound 0.1581 µM): 0.409
relative viability ([13]; first compound 0.5 µM): 0.418
relative viability ([13]; first compound 1.581 µM): 0.42
relative viability ([13]; first compound 5 µM): 0.595
relative viability ([14]; 0.05 µM): 0.87
relative viability ([14]; 0.1581 µM): 0.881
relative viability ([14]; 0.5 µM): 1
relative viability ([14]; 1.581 µM): 0.669
relative viability ([14]; 5 µM): 0.309
